Assay results from patent US20210369681A1, “Identification of PPM1D mutations as a novel biomarker for NAMPTi sensitivity” (YALE UNIVERSITY, priority 2018, published 2021).
Read-outs that look alike come from different tables or passages of the source.

System: parental and PPM1Dtrnc. immortalized human astrocytes
Type: cell-based
Description: In vitro cellular viability assessments of immortalized human astrocytes, MCF7, and U2OS cell lines were made using a previously described, high-content, microscopy platform developed by our group. In brief, cells were plated in a 96-well plate at a density of 2000 cells/well, and incubated overnight. Drug treatment or vehicle (0.5% DMSO) control was administered, and cells were incubated for 72-96 hours as indicated. Plates were then washed with PBS and fixed with ice-cold 70% ethanol for 2 hours at 4° C. […] Cells were imaged using a Cytation3 imager (BioTek), and images were stitched and analyzed as described above. Viability assessments were made comparing drug treated to vehicle treated conditions. SU-DIPG and HSJD-DIPG-007 spheroid viability was assessed using CytoTox-Glo (Promega), according to the manufacturer's protocols. Spheroids were treated with FK866 for 120 hours before analysis using this method. IC50 calculations were made using GraphPad Prism, by fitting data to an [inhibitor] vs response−variable slope four parameter nonlinear regression (as depicted in the representative figures). siRNA Transfection and Viability Analysis Individual NAPRT targeting siRNAs were ordered from Dharmacon Inc. (Horizon Discovery), with target sequences listed in Table 1. The panel of siRNAs used for synthetic lethal viability screening was hand-selected and ordered from Dharmacon Inc. and were provided in ON-TARGET plus mixtures, each containing up to four unique siRNAs per gene. 2×10^5 astrocytes were reverse-transfected with different siRNAs (200 nM final concentration), using Lipofectamine RNAiMAX (Invitrogen), according to manufacturer's protocols. For individual siRNAs, cells were incubated for 72 hours, pelleted, and lyzed for immunoblotting. For the siRNA screen, cells were incubated for 24 hours and split to different condition plates, where they were incubated for an additional 24 hours. Cells were then treated with the described doses of FK866, and viability was assessed after 72 hours of drug treatment, using the image-based pipeline described above. Viability measurements were made for each siRNA, and normalized to FK866-untreated conditions.
Given the role of PPM1D in DDR pathways, we performed a small molecule synthetic lethal screen with a panel of inhibitors against key DNA repair and metabolic proteins, using methodology described previously by our group.

[1] = ratio of IC50 in parental astrocytes to IC50 in PPM1Dtrnc. astrocytes, viability

O=P1(N(CCCl)CCCl)NCCCO1 (stereo not drawn) [Cyclophosphamide]
IC50 ratio (Parental/PPM1Dtrnc.): 0.90

CO[C@@]12[C@H](COC(N)=O)C3=C(C(=O)C(C)=C(N)C3=O)N1C[C@@H]1N[C@@H]12 [MMC]
IC50 ratio (Parental/PPM1Dtrnc.) [1]: 1.08

Cc1cc([C@@H](C)Nc2ccccc2C(=O)O)c2nc(N3CCOCC3)cc(=O)n2c1 [AZD6482]
IC50 ratio (Parental/PPM1Dtrnc.) [1]: 1.00

NS(=O)(=O)OC[C@@H]1C[C@@H](n2ccc3c(N[C@H]4CCc5ccccc54)ncnc32)C[C@@H]1O [MLN4924]
IC50 ratio (Parental/PPM1Dtrnc.) [1]: 0.92

CN(C)CCCNC(=O)c1ccc(-c2cc(O)c3ncccc3c2)cc1 [MLM324]
IC50 ratio (Parental/PPM1Dtrnc.) [1]: 1.02

O=NN(CCCl)C(=O)NC1CCCCC1 [Lomustine]
IC50 ratio (Parental/PPM1Dtrnc.) [1]: 1.10

Cn1c(CCCC(=O)O)nc2cc(N(CCCl)CCCl)ccc21 [Bendamustine]
IC50 ratio (Parental/PPM1Dtrnc.) [1]: 1.07

O=c1cc(N2CCOCC2)oc2c(-c3cccc4c3sc3ccccc34)cccc12 [NU-7441]
IC50 ratio (Parental/PPM1Dtrnc.) [1]: 1.26

CNc1cc(-c2cccc(Cl)c2Cl)nc(N)n1 [TH287]
IC50 ratio (Parental/PPM1Dtrnc.) [1]: 1.52

C/C(=N\NC(=O)c1cccc(S(=O)(=O)N2CCOCC2)c1)c1cc(Cl)ccc1O [SP2509]
IC50 ratio (Parental/PPM1Dtrnc.) [1]: 1.36

Cn1ncnc1[C@H]1c2n[nH]c(=O)c3cc(F)cc(c23)N[C@@H]1c1ccc(F)cc1 [BMN673]
IC50 ratio (Parental/PPM1Dtrnc.) [1]: 0.99

OCc1ccc(-c2ccc(-c3ccc(CO)s3)o2)s1 [RITA]
IC50 ratio (Parental/PPM1Dtrnc.) [1]: 1.27

CC[C@@]1(O)C(=O)OCc2c1cc1n(c2=O)Cc2cc3c(CN(C)C)c(O)ccc3nc2-1 [Topotecan]
IC50 ratio (Parental/PPM1Dtrnc.) [1]: 0.99

Cc1ccc([N+](=O)[O-])cc1S(=O)(=O)N(C)/N=C/c1cnc2ccc(Br)cn12 [PIK 75]
IC50 ratio (Parental/PPM1Dtrnc.) [1]: 0.97

Cn1nnc2c(C(N)=O)ncn2c1=O [TMZ]
IC50 ratio (Parental/PPM1Dtrnc.) [1]: 1.37

O=C(O)c1ccc(CN2CCC(CN[C@@H]3C[C@H]3c3ccccc3)CC2)cc1 [G5K2879552]
IC50 ratio (Parental/PPM1Dtrnc.) [1]: 1.00

CCc1c2c(nc3ccc(OC(=O)N4CCC(N5CCCCC5)CC4)cc13)-c1cc3c(c(=O)n1C2)COC(=O)[C@]3(O)CC [Irinotecan]
IC50 ratio (Parental/PPM1Dtrnc.) [1]: 1.01

O=c1cc(-c2cccc3c2Sc2ccccc2S3)oc(N2CCOCC2)c1 [KU-55933]
IC50 ratio (Parental/PPM1Dtrnc.) [1]: 1.18

C=CCn1c(=O)c2cnc(Nc3ccc(N4CCN(C)CC4)cc3)nc2n1-c1cccc(C(C)(C)O)n1 [MK-1775]
IC50 ratio (Parental/PPM1Dtrnc.) [1]: 0.63

O=C(c1cc(Cc2n[nH]c(=O)c3ccccc23)ccc1F)N1CCN(C(=O)C2CC2)CC1 [Olaparib]
IC50 ratio (Parental/PPM1Dtrnc.) [1]: 1.32

NC(=O)Nc1cc(-c2cccc(F)c2)sc1C(=O)N[C@H]1CCCNC1 [AZD7762]
IC50 ratio (Parental/PPM1Dtrnc.) [1]: 0.77

CNCc1ccc(-c2cc(-c3nc(-c4ccc(S(=O)(=O)C(C)C)cc4)cnc3N)on2)cc1 [VE822]
IC50 ratio (Parental/PPM1Dtrnc.) [1]: 0.93

Cn1c(=O)n(-c2ccc(C(C)(C)C#N)cc2)c2c3cc(-c4cnc5ccccc5c4)ccc3ncc21 [BEZ-235]
IC50 ratio (Parental/PPM1Dtrnc.) [1]: 1.01

C[C@@H](CN1CC(=O)NC(=O)C1)N1CC(=O)NC(=O)C1 [Dexrazoxane]
IC50 ratio (Parental/PPM1Dtrnc.) [1]: 1.17

Cn1ncc2c(N3CCOCC3)nc(-c3cccc(O)c3)nc21 [ETP 45658]
IC50 ratio (Parental/PPM1Dtrnc.) [1]: 1.51

COS(C)(=O)=O [MMS]
IC50 ratio (Parental/PPM1Dtrnc.) [1]: 1.28

CCN1CCN(CC(=O)Nc2ccc(-c3cccc4c(=O)cc(N5CCOCC5)oc34)c3sc4ccccc4c23)CC1 [KU 0060648]
IC50 ratio (Parental/PPM1Dtrnc.) [1]: 0.69

CCN1CCN(C(=O)Cc2ccc(Nc3ncc(F)c(Nc4ccc(C(=O)Nc5ccccc5Cl)cc4)n3)cc2)CC1 [TC-S 7010]
IC50 ratio (Parental/PPM1Dtrnc.) [1]: 0.78

C[C@@]1(CO)[C@H](O)CC[C@@]2(C)[C@H]1CC[C@H]1C[C@@H]3C[C@@]12CC[C@]3(O)CO [Aphidicolin]
IC50 ratio (Parental/PPM1Dtrnc.) [1]: 1.75

CC(N[C@H]1C[C@@H]1c1ccccc1)c1ccc2c(c1)OCCO2 (stereo partly drawn) [LSD1-C76]
IC50 ratio (Parental/PPM1Dtrnc.) [1]: 0.98
